This note sets out measurements from patent publication US20240423933A1, “DRUGS FOR TREATING NEURODEVELOPMENTAL DISORDERS” (President and Fellows of Harvard College, priority 2021, published 2024).

“Also recorded” adds a separate entry of the source. Where a SMILES comes first, the peptide text is derived from it. [ ]: non-standard residue; d: D form. αMeP = C[C@@]1(C(=O)O)CCCN1

The subject of assay [1] is MeCP2 knockdown Xenopus laevis tadpoles. Kind of assay: Seizure Score in MeCP2 knockdown tadpoles. The format is in vivo. The following applies: MeCP2 knockdown tadpoles treated Day 1 to Day 6, relative to vehicle. The text has this:
Seizure Score data for wild-type and MeCP2 knockdown was collected for Xenopus laevis tadpoles treated with drug (trofinetide or vorinostat) or vehicle from Day 1 to Day 6, after which they were placed back in medium.

Assay [2] shares this test system. Kind of assay: Tadpole viability in the MeCP2 knockdown model. The format is in vivo. Particulars: for animals survived until Day 10: MeCP2 knockdown tadpoles, no vehicle-treated animal survived beyond Day 6; for tadpole viability: MeCP2 knockdown model, FIGS. 6A-6B. The text has this: 100% of MeCP2 knockdown animals treated with vorinostat survived until Day 10; over 50% of MeCP2 knockdown animals treated with trofinetide survived until Day 10. Conversely, none of the MeCP2 knockdown animals treated with vehicle survived beyond Day 6.

Assay [3] concerns MeCP2-knockdown (MeCP2-/Y) mice. Put plainly: MeCP2 knockdown mouse study, treatment after onset of symptoms (oral vorinostat). The format is in vivo. The following applies: for survival after 3 weeks of treatment: MeCP2-knockdown animals; for colocalization of acetylated a-tubulin with neuronal staining in the colon: bIII- and acetylated alpha-tubulin staining; for colon vacuolization and neutrophil infiltrate (histology): colon sections of MeCP2-knockdown animals; for overall mobility scores (mobility, gait, hindlimb clasping) / diarrhea scores: relative to vehicle-treated MeCP2-knockdown animals; for overall mobility scores (mobility, gait, hindlimb clasping): FIG. 9B; for diarrhea scores: FIG. 9C. As for the experimental part:
Mice were treated with either trofinetide or vorinostat, and change in animal weight (g) and Cumulative Severity Score were assessed.
MeCP2-knockdown (MeCP2-/Y) mice were dosed approximately one week after the onset of symptoms with an oral formulation of vorinostat.
Additionally, the overall mobility scores (based on mobility, gait, and hindlimb clasping) and the diarrhea scores were improved for MeCP2-knockdown animals treated with vorinostat and trofinetide, relative to vehicle-treated MeCP2-knockdown animals (FIG. 9B and 9C, respectively). […] There was also an overall increase of hyperacetylated a-tubulin in bronchioles of MeCP2-Vy animals that vorinostat restored (FIG. 9E). Finally, vorinostat treatment rescued the disrupted a-tubulin acetylation observed in femoral muscle sections (FIG. 9F).
Initial histological analysis of the colon indicated a greater degree of vacuolization and heightened neutrophil infiltrate in MeCP2-knockdown animals, which vorinostat and trofinetide reversed. […] Vorinostat also normalized the ratio of acetylated alpha-tubulin to bIII-tubulin (FIG. 9G).

For assay [4], the system named is MeCP2-knockdown (MeCP2−/Y) mice. Kind of assay: MeCP2 knockdown mouse study, daily i.p. treatment from p31. The format is in vivo. The following applies: vorinostat 50 mg/kg i.p. daily, relative to vehicle-treated MeCP2-knockdown mice. How it is done: Wild-type and MeCP2-knockdown (MeCP2^−/Y) mice (a Rett mouse model) were treated starting at day 31 post-partum (p31) via daily intraperitoneal (i.p.) administration of trofinetide (100 mg/kg) or vorinostat (50 mg/kg) until day 51 of age (FIG. 7A). Behavorial assays were performed at days 35-39 and days 49-53, before sacrificing the mice and harvesting organs at day 54.

Assay [5] has as its system MeCP2 knockdown Xenopus laevis tadpoles. Put plainly: alpha-tubulin acetylation and cilia in tissues of MeCP2 knockdown tadpoles. Format: in vivo. How it is done:
Xenopus laevis tadpoles having an MeCP2 knockdown were generated using CRISPR-Cas9 technology. Xenopus embryos were fertilized and maintained at 14° C. until the 4-cell stage. Each cell was injected with ˜2 nL ribonucleoprotein (a mixture of sgRNAs targeting the MeCP2 gene and Cas9 enzyme). No adverse effects to development were observed, as all embryos developed to the swimming tadpole stages (Nieuwkoop-Faber stages 45-50) with no apparent loss of viability or morphological defect.
Specifically, tadpole tissues were assessed for alpha-tubulin acetylation and bidirectional shifts in acetylation patterns were observed depending on the tissue type.

The next assay relates to Naïve C57BL6 mice. Put plainly: Elevated Plus Maze test. The format is in vivo, mouse. Particulars: FIGS. 11A-11B.
Assay [6] concerns MeCP2 knockdown Xenopus laevis. Put plainly: Tongue thickness and GI tract ib4+ staining in MeCP2 knockdown tadpoles. Format: in vivo. The source says: Treatment with vorinostat in Xenopus laevis also had impacts on GI tract inflammation and nociceptive innervation. The role of MeCP2 knockdown in GI tract inflammation and nociceptive innervation by staining for isolectin B4-positive (ib4+) cells.

With `C[C@@]1(C(=O)N[C@@H](CCC(=O)O)C(=O)O)CCCN1C(=O)CN` [trofinetide, (2S)-2-[[(2S)-1-(2-aminoacetyl)-2-methylpyrrolidine-2-carbonyl]amino]pentanedioic acid] (H-Gly-[αMeP]-Glu-OH), the “seizures (Seizure Score)” value in assay [1] is listed as “reduced seizures”. In assay [2], the “animals survived until Day 10” value was “over 50%”. Besides, in assay [3], the “survival after 3 weeks of treatment” value is “about 60%”; the “colocalization of acetylated a-tubulin with neuronal staining in the colon” value was “normalized”; the “colon vacuolization and neutrophil infiltrate (histology)” value was “reversed”; the “overall mobility scores (mobility, gait, hindlimb clasping)” value is “improved”. Further, the diarrhea scores result in assay [3] is given as “improved”.
With `O=C(CCCCCCC(=O)Nc1ccccc1)NO` [vorinostat, N′-hydroxy-N-phenyloctanediamide], the “seizures (Seizure Score)” value in assay [1] is reported as “reduced seizures”. In assay [2], the tadpole viability result is “improves Xenopus laevis tadpole viability” and the “animals survived until Day 10” value stood at 100%. Further, the tadpole viability entry in assay [2] (listed as Vorinostat) is “improve Xenopus laevis tadpole viability”. The “neurological function (elevated plus maze and spatial novelty Y-maze performance)” value in assay [4] (FIG. 7D) is reported as “improved neurological function”. Also, the diarrhea score entry in assay [4] (FIG. 7E) is given as “improved diarrhea score”. Also, the “a-tubulin hyperacetylation in the GI tract” value in assay [5] (FIG. 2C) was “reversed that hyperacetylation”. Moreover, the “hyper-acetylation in olfactory multi-ciliated cells” value in assay [5] (microtubules and alpha-tubulin) is on record as “reverses hyper-acetylation”. In assay [5] (nostril multiciliated cells, FIGS. 2A-2B), the “effects related to microtubules and cilia length” value was “reversed those effects”. In addition, the “behavior in anxiety, activity and novelty seeking” value in the assay on Naïve C57BL6 mice is “restored behavior in anxiety, activity and novelty seeking; also recorded: restores naïve C57BL6 behavior”. Besides, the “hyperacetylated a-tubulin in bronchioles” value in assay [3] (FIG. 9E) is given as “restored”. Moreover, the “a-tubulin acetylation in femoral muscle sections” value in assay [3] (FIG. 9F) is “rescued”. Besides, in assay [3], the “survival after 3 weeks of treatment” value is given as 100%; the “colocalization of acetylated a-tubulin with neuronal staining in the colon” value is given as “normalized”; the “colon vacuolization and neutrophil infiltrate (histology)” value is reported as “reversed”; the “overall mobility scores (mobility, gait, hindlimb clasping)” value is “improved”. Further, in assay [3], the diarrhea scores entry is “improved”. Moreover, the “ratio of acetylated alpha-tubulin to bIII-tubulin” value in assay [3] (colon, FIG. 9G) was “normalized”. Moreover, in assay [3] (compared to trofinetide and vehicle treatments, FIG. 9D), the “breathing (score)” value was “significantly improved”. In assay [3] (oral vorinostat 50 mg/kg), the “performance in EPM and Y mazes” value is “increased performance”; the weight gain result is given as “ameliorated weight gain”. Also, the “Cumulative Severity Score / symptom severity score” value in assay [3] (oral vorinostat 50 mg/kg, mice treated at 35 days of age after onset of severe symptoms, FIG. 9A) was “more effective than trofinetide; also recorded: prevented significant worsening”. Besides, the tongue thickness result in assay [6] (MeCP2 knockdown animals, FIG. 3A) is reported as “restored normal tongue thickness; also recorded: restores normal tongue vertical thickness”. The “ib4+ expression in the GI tract” value in assay [6] (MeCP2 knockdown tadpoles, isolectin B4 staining, FIG. 3B) was “reversed that ib4+ expression; also recorded: restores normal ib4+ expression”.
